This is an account of results in ChEMBL document CHEMBL4007418, “Application of Off-Rate Screening in the Identification of Novel Pan-Isoform Inhibitors of Pyruvate Dehydrogenase Kinase” (J Med Chem, 2017).

The target of assay [1] is T1, Heat shock protein HSP 90-alpha (Homo sapiens, UniProt P07900). Kind of assay: Displacement of fluorescein-labelled VER160364 from HSP90A (unknown origin) after 90 mins by fluorescence polarization assay. Background: Fluorescence polarisation rises when a labelled molecule tumbles more slowly, as on binding a larger partner.
Assay [2] addresses T2, [Pyruvate dehydrogenase (acetyl-transferring)] kinase isozyme 1, mitochondrial (Homo sapiens, UniProt Q15118). Nature of the assay: Inhibition of PDHK1 (unknown origin) assessed as decrease in phosphorylation of E1alpha subunit at serine 293 residue after 1 hr by DELFIA.
The target of assay [3] is T2, [Pyruvate dehydrogenase (acetyl-transferring)] kinase isozyme 1, mitochondrial. Kind of assay: Binding affinity to PDHK1 (unknown origin) by surface plasmon resonance method. (In general: SPR reads the build-up and loss of mass on a sensor chip optically.)
Assay [4] shares this target. Nature of the assay: Inhibition of fluorescein-labelled VER160364 binding to PDHK1 (unknown origin) after 90 mins by fluorescence polarization assay.
Assay [5] has the same target. Kind of assay: Binding affinity to PDHK1 (unknown origin) by isothermal titration calorimetry. In general terms: Isothermal titration calorimetry measures the heat released or taken up as one component is titrated into another.
A further assay deals with PC-3. Kind of assay: Antiproliferative activity against human PC3 cells after 96 hrs by sulphorhodamine B assay. Format: functional. Particulars: PC-3, 96 h.
Assay [6] concerns the target T2, [Pyruvate dehydrogenase (acetyl-transferring)] kinase isozyme 1, mitochondrial. Kind of assay: Inhibition of PDHK1 in human PC3 cells assessed as decrease in phosphorylation of E1alpha subunit at serine 293 residue after 1 hr by ELISA. Format: cell-based.
The target of assay [7] is [Pyruvate dehydrogenase (acetyl-transferring)] kinase isozyme 2, mitochondrial (Homo sapiens, UniProt Q15119). Nature of the assay: Inhibition of fluorescein-labelled VER160364 binding to PDHK2 (unknown origin) after 90 mins by fluorescence polarization assay.
In assay [8] the target is T1, Heat shock protein HSP 90-alpha. Kind of assay: Dissociation rate from HSP90A (unknown origin) by surface plasmon resonance method.
The nature of assay [9]: Inhibition of PDHK (unknown origin). Set-up: species or system Homo sapiens.
Assay [10] has as its target T2, [Pyruvate dehydrogenase (acetyl-transferring)] kinase isozyme 1, mitochondrial. Kind of assay: Inhibition of SUMO-tagged PDHK1 (unknown origin) in presence of [gamma-32P]ATP after 30 mins by SDS-PAGE based phosphor imaging method.
Assay [11] has as its target T1, Heat shock protein HSP 90-alpha. Kind of assay: Displacement of fluorescein-labelled VER160364 from HSP90A (unknown origin) at 200 uM after 90 mins by fluorescence polarization assay relative to control.
Assay [12] has as its target T3, [Pyruvate dehydrogenase (acetyl-transferring)] kinase isozyme 4, mitochondrial (Homo sapiens, UniProt Q16654).
Description: Inhibition of PDHK4 (unknown origin) assessed as decrease in phosphorylation of E1alpha subunit at serine 293 residue after 1 hr by DELFIA
In assay [13] the target is [Pyruvate dehydrogenase (acetyl-transferring)] kinase isozyme 3, mitochondrial (Homo sapiens, UniProt Q15120). Nature of the assay: Inhibition of fluorescein-labelled VER160364 binding to PDHK3 (unknown origin) after 90 mins by fluorescence polarization assay.
In assay [14] the target is T3, [Pyruvate dehydrogenase (acetyl-transferring)] kinase isozyme 4, mitochondrial. Kind of assay: Inhibition of fluorescein-labelled VER160364 binding to PDHK4 (unknown origin) after 90 mins by fluorescence polarization assay.

The Ki is a measure of affinity in units of concentration, obtained from inhibition or displacement. A low value points to higher affinity. One may read the IC50 as the concentration that gives 50% inhibition. The term Kd denotes the constant that tells how readily two partners part at equilibrium. What is called GI50 is the concentration at which growth is held to half of that of the control. A low value points to more potent growth inhibition. What is called koff is the rate constant with which the complex falls apart. High values mean a short-lived complex, low ones a long-lived complex. As usually defined, the inhibition is the relative decrease from the control value, in per cent. Lower therefore signals a response near the control.

T2 sequence (Q15118 whole entry): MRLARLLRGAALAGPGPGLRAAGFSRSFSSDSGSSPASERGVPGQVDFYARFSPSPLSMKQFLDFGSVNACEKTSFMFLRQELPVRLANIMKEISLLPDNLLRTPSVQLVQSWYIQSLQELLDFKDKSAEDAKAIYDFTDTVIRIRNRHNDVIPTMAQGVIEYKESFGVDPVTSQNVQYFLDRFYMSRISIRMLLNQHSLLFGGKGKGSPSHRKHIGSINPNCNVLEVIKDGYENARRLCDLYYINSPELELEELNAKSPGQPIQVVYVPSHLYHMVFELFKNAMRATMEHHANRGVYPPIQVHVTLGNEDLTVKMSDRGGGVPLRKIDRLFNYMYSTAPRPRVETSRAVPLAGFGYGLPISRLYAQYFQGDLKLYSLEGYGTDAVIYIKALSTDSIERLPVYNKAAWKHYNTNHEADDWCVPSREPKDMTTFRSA
T3 sequence (Q16654 whole entry): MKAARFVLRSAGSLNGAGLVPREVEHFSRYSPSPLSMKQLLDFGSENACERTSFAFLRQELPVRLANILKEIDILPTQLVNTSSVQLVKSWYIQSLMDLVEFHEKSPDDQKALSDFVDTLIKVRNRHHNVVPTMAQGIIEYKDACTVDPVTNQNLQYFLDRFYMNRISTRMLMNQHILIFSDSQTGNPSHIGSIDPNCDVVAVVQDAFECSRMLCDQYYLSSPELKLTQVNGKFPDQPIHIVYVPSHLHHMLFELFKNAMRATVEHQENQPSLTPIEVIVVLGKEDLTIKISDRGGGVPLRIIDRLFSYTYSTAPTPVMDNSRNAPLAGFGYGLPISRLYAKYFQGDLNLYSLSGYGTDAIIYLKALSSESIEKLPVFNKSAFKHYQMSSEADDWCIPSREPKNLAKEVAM
Chain of [Pyruvate dehydrogenase (acetyl-transferring)] kinase isozyme 3, mitochondrial (Q15120 whole entry): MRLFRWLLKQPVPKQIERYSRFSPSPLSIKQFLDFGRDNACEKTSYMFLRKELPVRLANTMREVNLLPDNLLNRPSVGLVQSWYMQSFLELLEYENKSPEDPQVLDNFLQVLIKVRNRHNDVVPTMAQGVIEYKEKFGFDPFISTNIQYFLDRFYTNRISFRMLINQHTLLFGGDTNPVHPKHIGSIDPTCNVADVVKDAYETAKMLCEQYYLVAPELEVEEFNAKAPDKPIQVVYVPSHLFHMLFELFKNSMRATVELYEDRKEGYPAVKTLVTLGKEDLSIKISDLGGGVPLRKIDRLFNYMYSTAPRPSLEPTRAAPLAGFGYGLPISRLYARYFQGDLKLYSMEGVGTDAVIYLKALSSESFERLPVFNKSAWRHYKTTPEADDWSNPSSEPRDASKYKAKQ

For `Cc1cc2ccccc2nc1-c1ccc2c(c1)CC[C@H](C)N2C(=O)c1ccc(O)cc1O`, the Ki is 10.6 µM in [1] and 0.124 µM in assay [4]. For the same compound, the figures for the half-inhibitory concentration (IC50) in [2] and in [6] were 0.139 µM and 2.68 µM, respectively. Also, the equilibrium dissociation constant (Kd) stood at 0.115 µM in assay [3] and 0.153 µM in [5]. In addition, growth in the assay on PC-3 was halved (GI50) at 14 µM.
With `CN(C)C(=O)c1ccc(N(C)C(=O)c2ccc(O)cc2O)cc1`, in assay [7], the half-maximal inhibitory concentration (IC50) is 0.35 µM and the inhibition constant (Ki) worked out at 0.15 µM. Besides, in assay [1], the half-maximal inhibitory concentration (IC50) worked out at 2.97 µM and the Ki came to 1.23 µM.
Consider `COc1ccc(CN(C)C(=O)c2ccc(N(Cc3ccccc3)C(=O)c3ccc(O)cc3O)cc2)cc1`, for which the inhibition constant (Ki) is above 50 µM in [1] and 0.241 µM in assay [4]. For the same compound, the IC50 in assay [2] was found to be 0.201 µM; in [6], 10.6 µM. The compound further registered a Kd in [3] of 0.01 µM.
Regarding `C[C@H]1CCc2cc(-c3nc(Cl)nc4ccsc34)ccc2N1C(=O)c1ccc(O)cc1O`, the inhibition constant Ki in [1] came out at 1.78 µM; in [4] it was 0.467 µM. The concentration for half-maximal inhibition (IC50) in assay [2] worked out at 0.198 µM; in assay [6], 2.78 µM. In assay [3], this compound yielded a Kd of 0.01 µM.
On to `Cc1cnc(Cl)nc1-c1ccc(N(Cc2ccc(CNC(=O)C(F)F)cc2)C(=O)c2ccc(O)cc2O)cc1`, for which the inhibition constant (Ki) in assay [1] was above 100 µM. The compound also registered a concentration for 50% growth inhibition (GI50) in the assay with PC-3 of 26.2 µM.
`C[C@@H]1CN(C(=O)[C@@](C)(O)C(F)(F)F)[C@@H](C)CN1C(=O)c1ccc(C#N)cc1`: the half-inhibitory concentration (IC50) in assay [6] came out at 0.066 µM.
On to `O=C(c1ccc(O)cc1O)N(Cc1ccccc1)c1ccccc1`, for which the values for the koff in [3] and in assay [8] were 0.26 s⁻¹ and 0.14 s⁻¹, respectively. The inhibitory constant (Ki) in assay [4] turned out to be 0.98 µM.
Regarding `C[C@@H]1C[C@H]2O[C@@H]2/C=C\C=C\C(=O)Cc2c(Cl)c(O)cc(O)c2C(=O)O1` [RADICICOL], the IC50 is 1200 µM in assay [9] and 230 µM in [10].
For the compound `C[C@H]1CCc2cc(C(=O)N(C)Cc3ccc4nccnc4c3)ccc2N1C(=O)c1ccc(O)cc1O`, the inhibitory constant (Ki) came out at 2.51 µM in [1] and 0.016 µM in assay [4]. Moreover, the IC50 in [2] was 0.036 µM; in assay [6], 3.01 µM. Besides, binding in assay [3] was characterised by a dissociation constant (Kd) of 0.006 µM. This compound registered a concentration for 50% growth inhibition (GI50) in the assay with PC-3 of 30 µM.
Take `CCNC(=O)c1noc(-c2cc(Cl)c(O)cc2O)c1-c1ccc(CN2CCOCC2)cc1C`: the values for the Ki in assay [1] and in assay [4] were 0.032 µM and 0.136 µM, respectively. Further, the dissociation rate constant (koff) in assay [3] is 0.014 s⁻¹; in assay [8], 0.001 s⁻¹.
On to `CN(C(=O)c1ccc(O)cc1O)c1ccc(C(=O)N2CC(C(=O)O)Oc3ccccc32)cc1` (configuration not stated), for which the results for the inhibition constant (Ki) in assay [1] and in assay [4] were 0.184 µM and 0.26 µM, respectively.
For the compound `Cc1cnc(Cl)nc1-c1ccc(N(Cc2ccccc2)C(=O)c2ccc(O)cc2O)cc1`, the inhibition constant Ki in assay [1] was found to be 6.55 µM; in assay [4], 0.067 µM. Besides, the IC50 in [2] stood at 0.072 µM; in [6], 1.72 µM. In addition, the Kd amounted to 0.016 µM in [3] and 0.06 µM in assay [5]. The GI50 with PC-3 was above 40 µM.
`CCN(CC)CCN(C(=O)c1ccc(O)cc1O)c1ccc(OC)cc1`: in assay [7], the 50% inhibitory concentration (IC50) came out at 2.78 µM and the inhibition constant Ki stood at 1.33 µM. The inhibition in assay [11] was found to be 79%.
Consider `Cc1cnc(Cl)nc1-c1ccc2c(c1)CC[C@H](c1cccnc1)N2C(=O)c1ccc(O)cc1O`, for which the inhibition constant (Ki) in assay [1] was above 50 µM. The IC50 in [2] came out at 0.015 µM; in assay [6], 5.77 µM. This compound registered an equilibrium dissociation constant (Kd) in assay [3] of 0.01 µM.
Take `O=S(=O)(c1ccc(O)cc1O)N1Cc2cc(O)cc(O)c2C1`: the half-maximal inhibitory concentration (IC50) in [1] was found to be 47 µM; in assay [2], 2.1 µM; in assay [12], 0.84 µM.
For the compound `C[C@H]1CCc2cc(F)ccc2N1C(=O)c1ccc(O)cc1O`, the Ki in assay [1] is 3.48 µM; in [4], 0.09 µM. Moreover, the koff in [3] is 0.08 s⁻¹; in [8] it was 0.18 s⁻¹.
`CN(Cc1ccc2nccnc2c1)C(=O)c1ccc(N(Cc2ccccc2)C(=O)c2ccc(O)cc2O)cc1`: the inhibitory constant (Ki) amounted to 1.02 µM in [1] and 0.026 µM in assay [4]. Moreover, the half-maximal inhibitory concentration (IC50) in assay [2] amounted to 0.0627 µM; in [6], 5.65 µM. This compound also came in with a dissociation constant Kd in [3] of 0.001 µM.
In [7], `CCNC(=O)CN(C(=O)c1ccc(O)cc1O)c1ccc(OC)cc1` yielded a concentration for half-maximal inhibition (IC50) of 4.46 µM and a Ki of 2.17 µM. The compound further registered an inhibition in assay [11] of 74%.
Consider `CN(C)C(=O)c1ccc(S(=O)(=O)c2ccc(NC(=O)[C@@](C)(O)C(F)(F)F)c(Cl)c2)cc1`, for which the half-inhibitory concentration (IC50) in assay [6] stood at 0.041 µM.
As for `C[C@H]1CCc2cc(-c3nc(Cl)nc4[nH]ccc34)ccc2N1C(=O)c1ccc(O)cc1O`, the Ki was above 50 µM in assay [1] and 0.64 µM in assay [4]. For the same compound, the half-maximal inhibitory concentration (IC50) came out at 0.135 µM in assay [2] and 1.82 µM in assay [6]. The affinity in assay [3], expressed as Kd, was 0.009 µM. This compound came in with a GI50 in the assay with PC-3 of 15 µM.
Take `C[C@@H]1CCc2cc(F)ccc2N1C(=O)c1ccc(O)cc1O`: the koff in [3] amounted to 0.27 s⁻¹; in assay [8], 0.6 s⁻¹. Also, the affinity in assay [4] corresponds to a Ki of 1.17 µM. Moreover, the inhibition in assay [11] was 62%.
With `CC1CCc2cc(F)ccc2N1C(=O)c1ccc(O)cc1O` (racemic), the figures for the Ki in assay [1] and in assay [4] were 9.15 µM and 0.2 µM, respectively. For the same compound, the off-rate constant (koff) in [3] was 0.08 s⁻¹; in assay [8], 0.23 s⁻¹.
`Cc1cnc(Cl)nc1-c1ccc2c(c1)CC[C@H](C)N2C(=O)c1ccc(O)cc1O`: the results for the inhibitory constant (Ki) in assay [1] and in assay [4] were 1.98 µM and 0.037 µM, respectively. For the same compound, the values for the half-maximal inhibitory concentration (IC50) in assay [2] and in [6] were 0.063 µM and 2.74 µM, respectively. The figures for the Kd in [3] and in assay [5] were 0.019 µM and 0.032 µM, respectively. The compound further registered a concentration for 50% growth inhibition (GI50) in the assay on PC-3 of 40 µM.
Consider `Cc1cnc(Cl)nc1-c1ccc(N(Cc2ccc(CN3CCCC3)cc2)C(=O)c2ccc(O)cc2O)cc1`, for which the Ki in assay [1] is 3.21 µM; in [4], 0.037 µM. Further, the half-maximal inhibitory concentration (IC50) is 0.101 µM in [2] and 2.15 µM in assay [6]. Further, the Kd in assay [3] came to 0.078 µM. Besides, halving of growth in the assay with PC-3 (GI50) required 38 µM.
Consider `COc1ccc(N(C)C(=O)c2ccc(O)cc2O)cc1`, for which the 50% inhibitory concentration (IC50) in assay [7] came to 2.23 µM; in assay [1] it was 3.02 µM. Also, the inhibitory constant (Ki) in assay [7] was 1.07 µM; in [1], 1.38 µM; in assay [4], 1.93 µM; in assay [13], 0.55 µM; in assay [14], 1.27 µM.
`COc1cc2c(cc1OC)C(c1cccnc1)N(C(=O)c1ccc(O)cc1O)CC2` (configuration not stated): the off-rate constant (koff) in assay [3] was found to be 0.019 s⁻¹; in [8] it was 0.29 s⁻¹.
